Data on 2 compounds can be found in ChEMBL document CHEMBL1151807, “Myxotyrosides A and B, Unusual rhamnosides from Myxococcus sp” (J Nat Prod, 2009).

Usually IC50 stands for the concentration needed to halve the response being measured. Low readings indicate greater potency in that assay, high ones weaker potency in that assay.

Type in all cases: functional, organism-based
Assay [1] has as its system Escherichia coli. Nature of the assay: Quorum sensing activity in Escherichia coli MT102 harbouring pSB403 assessed as activation of acyl-homoserinlactone-related signaling at 0 to 1000 nM after 4 hrs by fluorescence assay.
Assay [2] has as its system Myxococcus xanthus DK 1622. Nature of the assay: Inhibition of Myxococcus xanthus DK 1622 growth at 0.5 mg after 72 hrs by agar diffusion assay. In general terms: A growth-free zone around the sample is the usual read-out of agar diffusion tests.
For assay [3], the system named is Chromobacterium violaceum. Nature of the assay: Quorum sensing activity in Chromobacterium violaceum assessed as activation of acyl-homoserinlactone-related signaling at 0 to 1000 nM after 4 hrs by fluorescence assay.
Assay [4] deals with Chromobacterium violaceum. Nature of the assay: Inhibition of acyl-homoserinlactone-related quorum sensing activity in Chromobacterium violaceum at 0 to 1000 nM after 4 hrs by fluorescence assay.
Assay [5] deals with Pseudomonas putida. Nature of the assay: Quorum sensing activity in Pseudomonas putida F117 pAS-C8 assessed as activation of acyl-homoserinlactone-related signaling at 0 to 1000 nM after 4 hrs by fluorescence assay.
Assay [6] concerns Pseudomonas putida. Nature of the assay: Quorum sensing activity in Pseudomonas putida F117 pKR-C12 assessed as activation of acyl-homoserinlactone-related signaling at 10 ul after 24 hrs by thin-layer chromatography.
For assay [7], the system named is Escherichia coli. Nature of the assay: Inhibition of acyl-homoserinlactone-related quorum sensing activity in Escherichia coli MT102 harbouring pSB403 at 0 to 1000 nM after 4 hrs by fluorescence assay.
The subject of assay [8] is Pseudomonas putida. Nature of the assay: Inhibition of acyl-homoserinlactone-related quorum sensing activity in Pseudomonas putida F117 pKR-C12 at 10 ul after 24 hrs by thin-layer chromatography.
Assay [9] has as its system Pseudomonas putida. Nature of the assay: Inhibition of acyl-homoserinlactone-related quorum sensing activity in Pseudomonas putida F117 pAS-C8 at 0 to 1000 nM after 4 hrs by fluorescence assay.
The next assay relates to Plasmodium falciparum. Nature of the assay: Antiplasmodial activity against Plasmodium falciparum.
A further assay has as its system Microbotryum violaceum. Nature of the assay: Antimicrobial activity against Microbotryum violaceum at 50 ug/disk by disk diffusion assay.
The next assay relates to Mycotypha microspora. Nature of the assay: Antimicrobial activity against Mycotypha microspora at 50 ug/disk by disk diffusion assay.
Another assay deals with Aspergillus ruber. Nature of the assay: Antimicrobial activity against Eurotium rubrum at 50 ug/disk by disk diffusion assay.
For the next assay, the system named is [Chlorella] fusca. Nature of the assay: Antimicrobial activity against Chlorella fusca at 50 ug/disk by disk diffusion assay. Particulars: Scenedesmus fuscus.
The test system of assay [10] is Escherichia coli. Nature of the assay: Antimicrobial activity against Escherichia coli at 50 ug/disk by disk diffusion assay.
In a further assay the test system is Priestia megaterium. Nature of the assay: Antimicrobial activity against Bacillus megaterium at 50 ug/disk by disk diffusion assay.

Calls of active or inactive are those of the source. The calls are words filed in the database; no cut-off is given here.

For the compound `CCCCCCCCCCCCC/C=C\C(=O)N/C=C\c1ccc(O[C@@H]2O[C@@H](C)[C@H](O)[C@@H](O)[C@H]2O)cc1`, the outcome (in the assay with Escherichia coli [1]; in [2]; in assay [3]; with Pseudomonas putida [5]; with Pseudomonas putida [6]) was inactive. Also, the outcome (in assay [4]; with Escherichia coli [7]; with Pseudomonas putida [8]; in the assay with Pseudomonas putida [9]) was Active.
With `CC(C)CCCCCCCCCCC/C=C\C(=O)N/C=C\c1ccc(O[C@@H]2O[C@@H](C)[C@H](O)[C@@H](O)[C@H]2O)cc1` [MYXOTYROSIDE A], the result (in the assay on Escherichia coli [1]; in assay [2]; in assay [3]; in the assay on Microbotryum violaceum; in the assay with Mycotypha microspora; in the assay with Aspergillus ruber) was inactive. Besides, the outcome (in [Chlorella] fusca; in the assay on Pseudomonas putida [5]; in the assay on Escherichia coli [10]; in the assay on Priestia megaterium; in the assay on Pseudomonas putida [6]) was inactive. In the assay with Plasmodium falciparum, the IC50 was 7 µM. In addition, the outcome (in assay [4]; with Escherichia coli [7]; in the assay on Pseudomonas putida [8]; in the assay with Pseudomonas putida [9]) was Active.
